# Measured values: ChEMBL document CHEMBL1150788, “In vitro susceptibility of Sporothrix schenckii to six antifungal agents determined using three different methods” (2007)
# Assays:
# Type in all cases: functional
# Sporothrix schenckii [1] = experiment: Antifungal activity against Sporothrix schenckii P10012 isolate from cutaneous-lymphatic sporotrichosis patient after 72 hrs by Sensititre YeastOne method
# Sporothrix schenckii [2] = experiment: Antifungal activity against Sporothrix schenckii P3287 isolate from cutaneous-lymphatic sporotrichosis patient after 72 hrs by Sensititre YeastOne method
# Sporothrix schenckii [3] = experiment: Antifungal activity against Sporothrix schenckii P25013 isolate from cutaneous-lymphatic sporotrichosis patient after 72 hrs by Sensititre YeastOne method
# Sporothrix schenckii [4] = experiment: Antifungal activity against Sporothrix schenckii P30915 isolate from cutaneous-lymphatic sporotrichosis patient after 72 hrs by Sensititre YeastOne method
# Sporothrix schenckii [5] = experiment: Antifungal activity against Sporothrix schenckii isolate from cutaneous-lymphatic sporotrichosis patient after 72 hrs by Sensititre YeastOne method
# Sporothrix schenckii [6] = experiment: Antifungal activity against Sporothrix schenckii P14954 isolate from cutaneous-lymphatic sporotrichosis patient after 72 hrs by Sensititre YeastOne method
# Sporothrix schenckii [7] = experiment: Antifungal activity against Sporothrix schenckii MRSS4 isolate from cutaneous-lymphatic sporotrichosis patient after 72 hrs by Sensititre YeastOne method
# Sporothrix schenckii [8] = experiment: Antifungal activity against Sporothrix schenckii P1621 isolate from cutaneous-lymphatic sporotrichosis patient after 72 hrs by Sensititre YeastOne method
# Sporothrix schenckii [9] = experiment: Antifungal activity against Sporothrix schenckii P14036 isolate from cutaneous-lymphatic sporotrichosis patient after 72 hrs by Sensititre YeastOne method
# Sporothrix schenckii [10] = experiment: Antifungal activity against Sporothrix schenckii PSSA81 isolate from cutaneous-lymphatic sporotrichosis patient after 72 hrs by Sensititre YeastOne method
# Sporothrix schenckii [11] = experiment: Antifungal activity against Sporothrix schenckii SSA29 isolate from cutaneous-lymphatic sporotrichosis patient after 72 hrs by Sensititre YeastOne method
# Sporothrix schenckii [12] = experiment: Antifungal activity against Sporothrix schenckii P26187 isolate from cutaneous-lymphatic sporotrichosis patient after 72 hrs by Sensititre YeastOne method
# Sporothrix schenckii [13] = experiment: Antifungal activity against Sporothrix schenckii P0019 isolate from cutaneous-lymphatic sporotrichosis patient after 72 hrs by Sensititre YeastOne method
# Sporothrix schenckii [14] = experiment: Antifungal activity against Sporothrix schenckii P24223 isolate from cutaneous-lymphatic sporotrichosis patient after 72 hrs by Sensititre YeastOne method
# Candida parapsilosis [15] = experiment: Antifungal activity against Candida parapsilosis ATCC 22019 […] after 72 hrs by Sensititre YeastOne method; conditions: Lodderomyces parapsilosis, ATCC 22019, 72 h
# Sporothrix schenckii [16] = experiment: Antifungal activity against Sporothrix schenckii PSCC1 isolate from cutaneous-lymphatic sporotrichosis patient after 72 hrs by Sensititre YeastOne method
# Sporothrix schenckii [17] = experiment: Antifungal activity against Sporothrix schenckii PGAC0016 isolate from cutaneous-lymphatic sporotrichosis patient after 72 hrs by Sensititre YeastOne method
# Sporothrix schenckii [18] = experiment: Antifungal activity against Sporothrix schenckii PJRC002 isolate from cutaneous-lymphatic sporotrichosis patient after 72 hrs by Sensititre YeastOne method
# Sporothrix schenckii [19] = experiment: Antifungal activity against Sporothrix schenckii P20825 isolate from cutaneous-lymphatic sporotrichosis patient after 72 hrs by Sensititre YeastOne method
# Sporothrix schenckii [20] = experiment: Antifungal activity against Sporothrix schenckii P30019 isolate from cutaneous-lymphatic sporotrichosis patient after 72 hrs by Sensititre YeastOne method
# Pichia kudriavzevii [21] = experiment: Antifungal activity against Candida krusei ATCC 6258 […] after 72 hrs by Sensititre YeastOne method; conditions: ATCC 6258, 72 h
# Sporothrix schenckii [22] = experiment: Antifungal activity against Sporothrix schenckii P24255 isolate from cutaneous-lymphatic sporotrichosis patient after 72 hrs by Sensititre YeastOne method
# Sporothrix schenckii [23] = experiment: Antifungal activity against Sporothrix schenckii PJRC002 isolate from cutaneous-lymphatic sporotrichosis patient after 72 hrs by ATB Fungus 2 method
# Sporothrix schenckii [24] = experiment: Antifungal activity against Sporothrix schenckii isolate from cutaneous-lymphatic sporotrichosis patient after 72 hrs by modified NCCLS M38-A method
# Sporothrix schenckii [25] = experiment: Antifungal activity against Sporothrix schenckii PGAC0016 isolate from cutaneous-lymphatic sporotrichosis patient after 72 hrs by ATB Fungus 2 method
# Sporothrix schenckii [26] = experiment: Antifungal activity against Sporothrix schenckii P30019 isolate from cutaneous-lymphatic sporotrichosis patient after 72 hrs by modified NCCLS M38-A method
# Pichia kudriavzevii [27] = experiment: Antifungal activity against Candida krusei ATCC 6258 […] after 72 hrs by ATB Fungus 2 method; conditions: ATCC 6258, 72 h
# Candida parapsilosis [28] = experiment: Antifungal activity against Candida parapsilosis ATCC 22019 […] after 72 hrs by ATB Fungus 2 method; conditions: Lodderomyces parapsilosis, ATCC 22019, 72 h
# Sporothrix schenckii [29] = experiment: Antifungal activity against Sporothrix schenckii P24223 isolate from cutaneous-lymphatic sporotrichosis patient after 72 hrs by ATB Fungus 2 method
# Sporothrix schenckii [30] = experiment: Antifungal activity against Sporothrix schenckii SSA29 isolate from cutaneous-lymphatic sporotrichosis patient after 72 hrs by ATB Fungus 2 method
# Sporothrix schenckii [31] = experiment: Antifungal activity against Sporothrix schenckii MRSS4 isolate from cutaneous-lymphatic sporotrichosis patient after 72 hrs by ATB Fungus 2 method
# Pichia kudriavzevii [32] = experiment: Antifungal activity against Candida krusei ATCC 6258 […] after 72 hrs by modified NCCLS M38-A method; conditions: ATCC 6258, 72 h
# Sporothrix schenckii [33] = experiment: Antifungal activity against Sporothrix schenckii isolate from cutaneous-lymphatic sporotrichosis patient after 72 hrs by ATB Fungus 2 method
# Sporothrix schenckii [34] = experiment: Antifungal activity against Sporothrix schenckii P30915 isolate from cutaneous-lymphatic sporotrichosis patient after 72 hrs by ATB Fungus 2 method
# Sporothrix schenckii [35] = experiment: Antifungal activity against Sporothrix schenckii P25013 isolate from cutaneous-lymphatic sporotrichosis patient after 72 hrs by ATB Fungus 2 method
# Sporothrix schenckii [36] = experiment: Antifungal activity against Sporothrix schenckii P14954 isolate from cutaneous-lymphatic sporotrichosis patient after 72 hrs by ATB Fungus 2 method
# Sporothrix schenckii [37] = experiment: Antifungal activity against Sporothrix schenckii P26187 isolate from cutaneous-lymphatic sporotrichosis patient after 72 hrs by ATB Fungus 2 method
# Sporothrix schenckii [38] = experiment: Antifungal activity against Sporothrix schenckii P10012 isolate from cutaneous-lymphatic sporotrichosis patient after 72 hrs by ATB Fungus 2 method
# Sporothrix schenckii [39] = experiment: Antifungal activity against Sporothrix schenckii PSCC1 isolate from cutaneous-lymphatic sporotrichosis patient after 72 hrs by ATB Fungus 2 method
# Sporothrix schenckii [40] = experiment: Antifungal activity against Sporothrix schenckii P3287 isolate from cutaneous-lymphatic sporotrichosis patient after 72 hrs by ATB Fungus 2 method
# Candida parapsilosis [41] = experiment: Antifungal activity against Candida parapsilosis ATCC 22019 […] after 72 hrs by modified NCCLS M38-A method; conditions: Lodderomyces parapsilosis, ATCC 22019, 72 h
# Sporothrix schenckii [42] = experiment: Antifungal activity against Sporothrix schenckii P30019 isolate from cutaneous-lymphatic sporotrichosis patient after 72 hrs by ATB Fungus 2 method
# Sporothrix schenckii [43] = experiment: Antifungal activity against Sporothrix schenckii P14036 isolate from cutaneous-lymphatic sporotrichosis patient after 72 hrs by ATB Fungus 2 method
# Sporothrix schenckii [44] = experiment: Antifungal activity against Sporothrix schenckii P0019 isolate from cutaneous-lymphatic sporotrichosis patient after 72 hrs by ATB Fungus 2 method
# Sporothrix schenckii [45] = experiment: Antifungal activity against Sporothrix schenckii P24255 isolate from cutaneous-lymphatic sporotrichosis patient after 72 hrs by ATB Fungus 2 method
# Sporothrix schenckii [46] = experiment: Antifungal activity against Sporothrix schenckii P20825 isolate from cutaneous-lymphatic sporotrichosis patient after 72 hrs by ATB Fungus 2 method
# Sporothrix schenckii [47] = experiment: Antifungal activity against Sporothrix schenckii P1621 isolate from cutaneous-lymphatic sporotrichosis patient after 72 hrs by ATB Fungus 2 method
compound,measurement,setting,value
CC(=O)N1CCN(c2ccc(OCC3COC(Cn4ccnc4)(c4ccc(Cl)cc4Cl)O3)cc2)CC1 (configuration not stated) [KETOCONAZOLE],MIC,Sporothrix schenckii [1],0.25 µg/mL
same,MIC,Sporothrix schenckii [2],0.5 µg/mL
same,MIC,Sporothrix schenckii [3],0.06 µg/mL
same,MIC,Sporothrix schenckii [4],0.5 µg/mL
same,MIC50,Sporothrix schenckii [5],0.25 µg/mL
same,MIC90,Sporothrix schenckii [5],0.5 µg/mL
same,MIC,Sporothrix schenckii [6],0.25 µg/mL
same,MIC,Sporothrix schenckii [7],0.25 µg/mL
same,MIC,Sporothrix schenckii [8],0.25 µg/mL
same,MIC,Sporothrix schenckii [9],0.125 µg/mL
same,MIC,Sporothrix schenckii [10],0.06 µg/mL
same,MIC,Sporothrix schenckii [11],0.25 µg/mL
same,MIC,Sporothrix schenckii [12],0.25 µg/mL
same,MIC,Sporothrix schenckii [13],0.06 µg/mL
same,MIC,Sporothrix schenckii [14],0.5 µg/mL
same,MIC,Candida parapsilosis [15],0.125 µg/mL
same,MIC,Sporothrix schenckii [16],0.125 µg/mL
same,MIC,Sporothrix schenckii [17],0.125 µg/mL
same,MIC,Sporothrix schenckii [18],0.125 µg/mL
same,MIC,Sporothrix schenckii [19],0.125 µg/mL
same,MIC,Sporothrix schenckii [20],0.125 µg/mL
same,MIC,Pichia kudriavzevii [21],1 µg/mL
same,MIC,Sporothrix schenckii [22],0.125 µg/mL
Nc1nc(=O)[nH]cc1F [FLUCYTOSINE],MIC,Sporothrix schenckii [23],64 µg/mL
same,MIC50,Sporothrix schenckii [24],> 64 µg/mL
same,MIC,Sporothrix schenckii [1],8 µg/mL
same,MIC,Sporothrix schenckii [2],16 µg/mL
same,MIC,Sporothrix schenckii [3],32 µg/mL
same,MIC,Sporothrix schenckii [25],> 64 µg/mL
same,MIC,Sporothrix schenckii [26],4 µg/mL
same,MIC,Pichia kudriavzevii [27],32 µg/mL
same,MIC,Sporothrix schenckii [4],16 µg/mL
same,MIC50,Sporothrix schenckii [5],16 µg/mL
same,MIC90,Sporothrix schenckii [5],32 µg/mL
same,MIC,Sporothrix schenckii [6],32 µg/mL
same,MIC,Sporothrix schenckii [7],16 µg/mL
same,MIC,Candida parapsilosis [28],1 µg/mL
same,MIC,Sporothrix schenckii [29],> 64 µg/mL
same,MIC,Sporothrix schenckii [30],32 µg/mL
same,MIC,Sporothrix schenckii [8],8 µg/mL
same,MIC,Sporothrix schenckii [31],> 64 µg/mL
same,MIC,Sporothrix schenckii [9],32 µg/mL
same,MIC,Pichia kudriavzevii [32],16 µg/mL
same,MIC,Sporothrix schenckii [10],1 µg/mL
same,MIC50,Sporothrix schenckii [33],64 µg/mL
same,MIC90,Sporothrix schenckii [33],> 64 µg/mL
same,MIC,Sporothrix schenckii [11],16 µg/mL
same,MIC,Sporothrix schenckii [12],8 µg/mL
same,MIC,Sporothrix schenckii [34],> 64 µg/mL
same,MIC,Sporothrix schenckii [35],64 µg/mL
same,MIC,Sporothrix schenckii [36],> 64 µg/mL
same,MIC,Sporothrix schenckii [37],64 µg/mL
same,MIC,Sporothrix schenckii [38],64 µg/mL
same,MIC,Sporothrix schenckii [39],> 64 µg/mL
same,MIC,Sporothrix schenckii [13],16 µg/mL
same,MIC,Sporothrix schenckii [40],> 64 µg/mL
same,MIC,Sporothrix schenckii [14],16 µg/mL
same,MIC,Candida parapsilosis [15],1 µg/mL
same,MIC,Candida parapsilosis [41],0.5 µg/mL
same,MIC,Sporothrix schenckii [16],> 64 µg/mL
same,MIC,Sporothrix schenckii [42],64 µg/mL
same,MIC,Sporothrix schenckii [17],16 µg/mL
same,MIC,Sporothrix schenckii [43],64 µg/mL
same,MIC,Sporothrix schenckii [18],8 µg/mL
same,MIC,Sporothrix schenckii [19],8 µg/mL
same,MIC,Sporothrix schenckii [44],> 64 µg/mL
same,MIC,Sporothrix schenckii [45],64 µg/mL
same,MIC,Sporothrix schenckii [46],32 µg/mL
same,MIC,Sporothrix schenckii [20],1 µg/mL
same,MIC,Pichia kudriavzevii [21],32 µg/mL
same,MIC,Sporothrix schenckii [22],16 µg/mL
same,MIC,Sporothrix schenckii [47],8 µg/mL
